Experimental data taken from patent US20240156779A1, “SMALL MOLECULE ALLOSTERIC MODULATORS OF CLASS B GPCR, THE PTHR, AND METHOD TO IDENTIFY THEM” (University of Pittsburgh - Of the Commonwealth System of …, priority 2021, published 2024).
Positions count from the first letter of the chain named. Entries after “also recorded” stand apart in the source; their conditions may differ.

Legend:
PTHR [1] = target: T1, PTHR (Homo sapiens, UniProt Q03431); conditions: cited from earlier work
T1 sequence (Q03431 27-593): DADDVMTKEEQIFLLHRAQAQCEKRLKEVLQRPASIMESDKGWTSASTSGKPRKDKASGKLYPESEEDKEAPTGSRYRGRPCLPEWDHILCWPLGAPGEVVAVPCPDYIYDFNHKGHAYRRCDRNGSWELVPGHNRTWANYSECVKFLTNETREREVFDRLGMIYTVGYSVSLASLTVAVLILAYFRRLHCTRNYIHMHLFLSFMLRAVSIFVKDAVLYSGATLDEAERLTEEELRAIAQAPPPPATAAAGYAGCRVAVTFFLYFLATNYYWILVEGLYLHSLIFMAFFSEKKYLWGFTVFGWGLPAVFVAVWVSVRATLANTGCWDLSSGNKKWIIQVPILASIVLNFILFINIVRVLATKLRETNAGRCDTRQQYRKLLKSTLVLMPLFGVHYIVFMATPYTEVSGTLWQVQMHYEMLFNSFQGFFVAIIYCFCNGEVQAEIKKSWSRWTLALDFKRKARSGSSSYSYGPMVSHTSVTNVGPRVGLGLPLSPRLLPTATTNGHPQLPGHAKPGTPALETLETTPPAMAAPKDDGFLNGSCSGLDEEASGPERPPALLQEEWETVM

PTHR [2] = target: T1, PTHR; assay: Radioligand receptor binding, membranes of GP-2.3 cells; set-up: expressed in transfected cells; host or cells: HEK-293-derived GP-2.3 cells (membranes)
[3] = target: vasopressin type 2 receptor (V2R) (Homo sapiens, UniProt P30518); assay: vasopressin-mediated cAMP production; format: cell-based
recombinant PTHR = assay: Intracellular Ca2+ release (Fluo-4) in response to PTH; format: cell-based; conditions: 100 nM PTH, 10 μM Pitt molecules
[4] = target: b2-adrenergic receptor (b2AR) (Homo sapiens, UniProt P07550); assay: cAMP production mediated by b2AR agonist isoproterenol; format: cell-based; conditions: in response to isoproterenol
human PTHR mutant E180A = target: T2, human PTHR mutant E180A (Homo sapiens, UniProt Q03431, E180A); assay: PTH-induced cAMP signaling of receptor mutant E180A; format: cell-based
T2 construct: HA
T2 sequence (Q03431 27-593 E180A): T1 sequence (Q03431 27-593) with E154A

[5] = target: T3, PTHR association with G proteins (mGs, mGq) (Homo sapiens, UniProt Q03431); assay: FRET time courses of PTHR-CFP interaction with mini-Gs and mini-Gq; format: cell-based; conditions: PTH-induced
T3 construct: expressed in transfected cells
T3 sequence (Q03431 27-593): T1 sequence (Q03431 27-593)
T3 sequence (P01270 32-65 partner limits assumed): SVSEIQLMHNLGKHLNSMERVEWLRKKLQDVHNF

PTHR [6] = target: T1, PTHR; assay: PTH-induced cAMP time courses (FRET sensor) in HEK293 cells stably expressing PTHR; format: cell-based; set-up: expressed in transfected cells; conditions: for inhibition of PTH-mediated cAMP production compared with Pitt12: 10 μM compound
[7] = target: T4, human PTH type 1 receptor (hPTHR) (Homo sapiens, UniProt Q03431); assay: Concentration-response curves for cAMP (GloSensor) by PTH with Pitt molecules; format: cell-based; conditions: range of Pitt concentrations
T4 construct: expressed in transfected cells
T4 sequence (Q03431 27-593): T1 sequence (Q03431 27-593)

human PTHR mutant R181A = target: T5, human PTHR mutant R181A (Homo sapiens, UniProt Q03431, R181A); assay: PTH-induced cAMP signaling of receptor mutant R181A; format: cell-based
T5 construct: HA
T5 sequence (Q03431 27-593 R181A): T1 sequence (Q03431 27-593) with R155A

[8] = 20 μmol/kg, 3 h after injection

b2-adrenergic receptor (b2AR), sequence (P07550 whole entry, species assumed): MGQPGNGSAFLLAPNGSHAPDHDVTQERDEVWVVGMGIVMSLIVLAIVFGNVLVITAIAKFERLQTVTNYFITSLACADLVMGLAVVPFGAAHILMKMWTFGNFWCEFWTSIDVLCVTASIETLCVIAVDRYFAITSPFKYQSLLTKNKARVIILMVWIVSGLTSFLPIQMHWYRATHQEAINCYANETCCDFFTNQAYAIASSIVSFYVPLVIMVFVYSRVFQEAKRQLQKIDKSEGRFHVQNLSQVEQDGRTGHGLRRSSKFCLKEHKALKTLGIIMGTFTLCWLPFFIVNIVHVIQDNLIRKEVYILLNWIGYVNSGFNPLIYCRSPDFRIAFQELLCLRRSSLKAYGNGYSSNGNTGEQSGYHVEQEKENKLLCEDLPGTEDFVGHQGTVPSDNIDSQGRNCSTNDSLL
vasopressin type 2 receptor (V2R), sequence (P30518 whole entry, species assumed): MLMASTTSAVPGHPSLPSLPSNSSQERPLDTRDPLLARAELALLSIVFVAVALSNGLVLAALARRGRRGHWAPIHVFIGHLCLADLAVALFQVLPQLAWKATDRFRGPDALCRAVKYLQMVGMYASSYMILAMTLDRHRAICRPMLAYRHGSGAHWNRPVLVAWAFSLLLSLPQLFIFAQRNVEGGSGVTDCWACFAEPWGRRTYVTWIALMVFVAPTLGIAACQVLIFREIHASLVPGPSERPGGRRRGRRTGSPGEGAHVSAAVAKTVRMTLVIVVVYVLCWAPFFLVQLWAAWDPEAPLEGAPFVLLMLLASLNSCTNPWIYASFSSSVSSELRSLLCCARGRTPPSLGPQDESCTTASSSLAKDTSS

CCCCn1c(O)c(C(=N)N)c(=O)n(CCCC)c1=O [AH-3960]
mode of action at PTHR (PTHR [1]): weak agonist

Cc1cc(N2C(=O)NC(=O)C2(C)C)cc(C)c1CCS(=O)(=O)N1CCC2(CC1)N=C(c1ccc(OC(F)(F)F)cc1)NC2=O [PCO371]
mode of action at PTHR (PTHR [1]): orthosteric agonist

COc1ccc([C@@H]2CN(C(=O)OCC3c4ccccc4-c4ccccc43)C[C@H]2C(=O)O)cc1 [Pitt12]
inhibitory binding constant (Ki), RG state (PTHR [2]; G-protein coupled (RG) state): in the μM range | inhibitory binding constant (Ki), R0 state (PTHR [2]; G-protein uncoupled (R0) state, with GTPgS): in the μM range | effect on vasopressin-mediated cAMP [3]: lack of effect | serum Ca2+ (sCa2+) level, compound alone (C57BL/6 mice; [8]): significantly reduced | serum phosphate (sPi) level, compound alone (C57BL/6 mice; [8]): trend of reducing | BUN/creatine ratio (kidney function and hydration status) (C57BL/6 mice; mouse, in vivo): lack of significant changes | PTH-mediated release of stored intracellular Ca2+ (recombinant PTHR): noticeable reduction | effect on β2AR-mediated cAMP production [4]: no effect | sensitivity of E180A mutant to modulation of PTH-induced cAMP (human PTHR mutant E180A): lost their ability to respond to negative modulation | G proteins association with the receptor [5]: decrease in both the kinetics and magnitude | alteration of plasma membrane cAMP (PTHR [6]; 1 nM PTH): ≈ 30% | reduction of endosomal cAMP production (PTHR [6]; 1 nM PTH): ≈ 70% | effect on PTH-induced cAMP production (AUC of time course) (PTHR [6]; 1 nM PTH co-applied with 10 μM compound, HEK293-PTHR): distinguishably high potential to elicit negative effects | sustained cAMP response on blockade of receptor internalization (PTHR [6]; cells expressing DynK44A, PTH with Pitt coapplied): moderately affected | effect on efficacy (Emax) of PTH to mediate cAMP increase [7]: blocked cAMP production by PTH; also recorded: marked reduction in efficacy | sensitivity of R181A mutant to modulation of PTH-induced cAMP (human PTHR mutant R181A): lost their ability to respond to negative modulation

O=C(O)[C@@H]1CN(C(=O)OCC2c3ccccc3-c3ccccc32)C[C@H]1c1ccccc1 [Pitt41]
inhibition of PTH-mediated cAMP production compared with Pitt12 (PTHR [6]; HEK293-PTHR): more efficacious than Pitt12

Cc1ccc([C@@H]2CN(C(=O)OCC3c4ccccc4-c4ccccc43)C[C@H]2C(=O)O)cc1 [Pitt42]
inhibition of PTH-mediated cAMP production compared with Pitt12 (PTHR [6]; HEK293-PTHR): more efficacious than Pitt12
